The subject of assay [1] is mixed cortical neuronal cultures. Briefly: neuroprotection against NMDA induced toxicity in mixed cortical neuronal cultures (Trypan Blue Dye Exclusion). Type of assay: cell-based, rat (foetal rats). The following applies: prevention of toxicity by NMDA 500 μM, 20 min exposure, 3 min preincubation, viability after 24 h. The protocol:
The efficacy of the compounds of the invention as neuroprotective agents, based upon their ability to prevent EEA induced toxicity in vitro, was evaluated in mixed cortical neuronal cultures, following the method reported below.
Mixed cortical neuronal cultures from foetal rats at 16 days of gestation were prepared as described by Choi (J. Neur. Sci. 7: 357-368, 1987).
Briefly, dissociated cells were plated on poly-L-lysine coated multiwell plates at density of 1*10^5 cells/cm^2 in MEM with Earle's salts supplemented with 21 mM D-glucose, 2 mM L-glutamine, 50 μg/ml Streptomicin, 50 IU Penicillin, 10% Foetal Calf Serum and 10% Horse Serum. Cultures were kept at 37° C., 5% CO2 and survived about 5 weeks. After 7 days in vitro, astrocites proliferation was inhibited by adding 10 μM Cytosine Arabinoside for 48 hours; the medium was subsequently substituted twice a week with a fresh medium without foetal calf serum (Hatley, J. Pharm. and Exp. Ther. 250 (II);752-758, 1989).
Only nature cortical cultures, from 14 DIV on, were used for the study.
Experiments were performed at 25° C. as follows: cells were washed once with a Locke's buffer, (128 mM NaCl, […] KCl, 1.2 mM Na2 HPO4, 2.7 mM CaCl2, 20 mM Hepes and 10 mM D-glucose) pH=7.4, then preincubated with the test compounds for 3 min. followed by a 20 min. exposure to N-methyl-D-aspartate (NMDA) (500 μM).
The incubation was stopped by removing Locke's buffer and substituting the conditioned medium. After 24 hours at 37° C., 5% CO2, Trypan Blue Dye Exclusion Test (0.04%) was used for evaluating the cells viability.

Assay [2] concerns focal ischemia in mice (Middle Cerebral Artery occlusion). Briefly: antiischemic activity in vivo in the model of focal ischemia in mice (MCA electrocoagulation), infarct volume. The settings on record: male Swiss mice; for Infarct volume: Means ± SEM after MCA occlusion, day 4, 7 mg/Kg i.p. 5 min and 6 h after ischemia, then twice a day on days 2, 3 and 4, saline 20.9 ± 1.7, P < 0.01 from controls. Set-up: species or system mice (male Swiss CD). As to the method: The antiischemic activity of the compounds of the present invention was evaluated in vivo in the model of focal ischemia in mice.
Focal ischemia was produced in mice by electrocoagulation of the Middle Cerebral Artery (MCA) according the procedure reported by Welsh et al. (Welsh F A, Sakamoto T, McKee A, Sims R E, J Neurochem: 49: 846-851, 1987). Briefly, male Swiss CD mice (C. River, Milan, Italy) were anesthetised with chloral hydrate (500 mg/Kg i.p.); an incision was made on the temporo-parietal region of the head and a small burr hole was drilled into the lateral outer surface of the skull just over the MCA. The stem of the MCA was occluded by microbipolar coagulation. Animals were maintained under an heating lamp during surgery and for two hours afterwards.
Four days after the occlusion, mice were decapitated and the brains stored a -20° C. until sectioned for histological examination.
Coronal sections (50 μm thick) of the frozen brains were taken every 1.00 mm in order to evaluate the infarct volume.
The slices were stained with cresyl violet and the cortical infarct area of each slice was determined by an image analyzing system (Ibas 20, Kontron, Milan, Italy). Infarct volume was calculated from the infarct area on each slice and the distance between succeeding slices.
The treatment schedule consisted in the administration of the tested compound 5 min and 6 h after ischemia during the first day after surgery and then twice a day on days 2, 3 and 4 according to published data (Gotti B. et al.; Brain Research, 522,290-307, 1990). The tested compounds were given i.p. at the dose of 7 mg/Kg.
Dosing was performed till sacrifice. The time schedule, the doses and the route of administration of the tested compounds were selected on the basis of preliminary experiments.

This note sets out measurements from patent US5968955A, “Disubstituted piperidine derivatives as neuroprotective agents” (Pharmacia & Upjohn S.p.A., priority 1995, dated 1999).

Molecules are shown by their SMILES.

For `O=C(c1ccc(F)cc1)C1CCN(CC(O)c2cc(Br)no2)CC1` (centres unmarked) [Compound 25, 2-[4-(4-fluoro-benzoyl)piperidin-1-yl]-1-(3-bromo-isoxazol-5-yl)-ethan-1-ol], in assay [1] (Rattus norvegicus), the response was half-maximal at 22000 nM (EC50).

As for `COc1cc(C(O)CN2CCC(C(=O)c3ccc(F)cc3)CC2)on1` (racemic) [Compound 27, (±)2-[4-(p-Fluoro-benzoyl)-piperidin-1-yl]-1-(3-methoxy-isoxazol-5-yl)-ethan-1-ol], the EC50 (in general, the midpoint of the concentration-response curve) in assay [1] (Rattus norvegicus) turned out to be 640 nM.

Consider `COc1cc(C(O)CN2CCC(Cc3ccccc3)CC2)on1` (racemic) [Compound 3, (±)-2-(4-Benzyl-piperidin-1-yl)-1-(3-methoxy-isoxazol-5-yl)-ethan-1-ol], for which the “Effect on infarct volume compared with saline-treated mice (in words)” value in assay [2] (7 mg/Kg i.p., day 4, versus saline) is given as “significantly reduce infarct volume”. The Infarct volume in assay [2] (7 mg/kg) is on record as 13.6 ± 1.5 mm^3; in assay [2] (listed as Example 2, 7 mg/kg), 13.6±1.5 mm^3. This compound gave an EC50 in assay [1] (Rattus norvegicus) of 3290 nM.

`ON=C(CN1CCC(Cc2ccccc2)CC1)c1cc(Br)no1` [Compound 17, (±)-2-(4-Benzyl-piperidin-1-yl)-1-(3-bromo-isoxazol-5-yl)-ethan-1-one-oxyme]: the response in assay [1] was half-maximal at 2130 nM (EC50).

`OC(CN1CCC(Cc2ccccc2)CC1)c1cc(Br)no1` (racemic) [Compound 1, (±)-2-(4-Benzyl-piperidin-1-yl)-1-(3-bromo-isoxazol-5-yl) -ethan-1-ol] gave an EC50 in assay [1] (Rattus norvegicus) of 2020 nM. In other words, the single-digit micromolar range.
